Source: PubChem BioAssay (NCI)
“And” between values parts separate entries of the source, which are not always exact repeats. Identical values can stand only once.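 Cultured in 96-well plates, cells were exposed to test compound for 48 hours across five concentrations. GI50: concentration for 50% inhibition of growth. TGI denotes the concentration required for complete inhibition of growth.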

Columns and labels:
Assay in all cases: NCI tumour cell line growth inhibition, 48 h
[1] = tested on: LOX IMVI melanoma
[2] = tested on: UACC-257 melanoma
[3] = tested on: UACC-62 melanoma
[4] = tested on: KM12 colon
[5] = tested on: HCC-2998 colon
[6] = tested on: HCT-116 colon
[7] = tested on: SF-268 CNS
[8] = tested on: SNB-75 CNS
[9] = tested on: HOP-92 NSCLC
[10] = tested on: ACHN renal

Compound	GI50 [1] [µM]	TGI [1] [µM]	GI50 [2] [µM]	TGI [2] [µM]	GI50 [3] [µM]	TGI [3] [µM]	GI50 [4] [µM]	TGI [4] [µM]	GI50 [5] [µM]	TGI [5] [µM]	GI50 [6] [µM]	TGI [6] [µM]	GI50 [7] [µM]	TGI [7] [µM]	GI50 [8] [µM]	TGI [8] [µM]	GI50 [9] [µM]	TGI [9]	GI50 [10] [µM]	TGI [10] [µM]
Nc1nccc(C#Cc2cncnc2Nc2ccc(OCc3cccc(F)c3)c(Cl)c2)n1	1.72	6.01	3.92	7.64	4.09	7.68	4.52	8.2	4.1	7.55	3.48	7.43	4.5	9.28	5.75	> 14.3	3.73	8.95 µM	4.2	10.6
COC12c3ccccc3-c3ccccc3C1[C@@H](C(=O)O)[C@H]2C(=O)O (stereo not given in full)	–	> 10	–	> 10	–	–	–	> 10	–	> 10	–	–	–	> 10	–	> 10	–	> 10 µM	–	> 10
O=C1c2cccnc2-c2nc(-c3ccccc3)cc3c2c1nc1ccccc13	6.37	32.6	0.835	8.08	3.74	9.01	4.61	16.1	4.95	18.5	1.91	7.2	3.93	18.8	10.5	23.1	20.3	80.4 µM	1.09	8
Cc1ccc(C)c(NC(=O)CCC(=O)CC(=O)C(C)(C)C)c1	–	> 100	–	> 100	–	> 100	–	> 100	–	> 100	–	> 100	–	> 100	–	> 100	–	> 100 µM	–	> 100
C[C@@H](Oc1cc(-n2cnc3ccc(OCC4CCN(C)CC4)cc32)sc1C(N)=O)c1ccccc1C(F)(F)F	0.106	3.27	0.179	4.51	0.0964	3.02	0.0671	0.991	0.0859	2.98	0.0997	3.18	0.14	3.86	0.0853	1.42	0.307	3.43 µM	0.801	4.52
O=C(O)Cc1ccccc1	> 1000	> 2000	> 1000	> 2000	> 1000	> 2000	> 1000	> 2000	> 1000	> 2000	> 1000	> 1000	> 1000	> 2000	> 1000	> 2000	> 1000	> 1000 µM and 1250 µM	> 1000	> 2000
CN(C)c1ccc(N=C(C#N)c2nc(N)nc(N3CCOCC3)n2)cc1	22.1	53.5	> 100	> 100	46.3	> 100	53	> 100	> 100	> 100	–	–	–	–	18.7	49.4	28.3	> 100 µM	23.3	68.4
O=C1/C(=C\c2ccccc2)CN(C(=O)c2ccccc2F)C/C1=C\c1ccccc1	0.746	2.17	2.15	4.79	1.68	3.41	1.37	3.11	2.11	3.66	0.321	1.03	2.8	8.85	3.5	14.5	3.18	14.2 µM	1.85	3.46
CCOC(=O)/C(=C/c1c(-c2ccccc2)[nH]c2ccccc12)C(=O)c1ccc(Cl)cc1	3.64	> 100	6.49	> 100	3.27	37.1	3.29	> 100	3.94	> 100	2.76	> 100	6.06	> 100	4.87	> 100	1.93	15 µM	3.62	> 100
Nc1ncn([C@@H]2C=C(CO)C(O)C2O)c(=O)n1 (stereo not given in full)	–	> 100	–	> 100	–	> 100	–	> 100	–	> 100	–	> 100	–	> 100	–	–	–	> 100 µM	–	> 100
O=C1/C(=C/c2ccccc2Cl)COc2ccccc21	–	35.8	–	34.9	–	–	–	34.9	–	35.9	–	17	–	34.1	–	32.1	–	29.4 µM	–	34.6
Clc1ccc(C2=NN(c3ccccc3)C3c4cc(Br)ccc4OCC23)cc1 (stereo not given)	–	> 100	–	> 100	–	–	–	> 100	–	> 100	–	> 100	–	> 100	–	> 100	–	> 100 µM	–	> 100
c1ccc2c(c1)SCCCSCCCS2	–	> 100	–	> 100	–	> 100	–	> 100	–	> 100	–	> 100	–	> 100	–	> 100	–	> 100 µM	–	–
Nc1cc2c3c(cccc3c1)C(=O)N(CCN1CCN(CCN3C(=O)c4cccc5cc(N)cc(c45)C3=O)CC1)C2=O	–	–	–	> 100	–	> 100	–	> 100	–	> 100	–	> 100	–	> 100	–	> 100	–	> 100 µM	–	> 100
Cc1cc2c(C)nn(Cc3ccc(Cl)cc3Cl)c2c(C#N)c1C	–	> 100	–	> 100	–	> 100	–	–	–	> 100	–	> 100	–	> 100	–	> 100	–	92.6 µM	–	> 100
COC(=O)[C@@]12C3=NO[C@]1(C(=O)OC)C(O[Si](C)(C)C(C)(C)C)C1OC(C)(C)OC1[C@@H]2[C@@H](OCc1ccccc1)CC3 (stereo not given in full)	–	> 100	–	–	–	> 100	–	> 100	–	> 100	–	> 100	–	–	–	> 100	–	17.3 µM	–	–
COc1ccc2c(c1)CC[C@@H]1C2CC[C@]2(C)C(=O)N(C)C(=O)CC12 (stereo not given in full)	–	–	–	> 100	–	> 100	–	> 100	–	> 100	–	> 100	–	> 100	–	> 100	–	> 100 µM	–	> 100
Cc1ccc(NC(=O)CCC(=O)C2CC(=O)CCC2=O)cc1C (stereo not given)	–	> 100	–	> 100	–	> 100	–	> 100	–	> 100	–	> 100	–	> 100	–	–	–	> 100 µM	–	> 100
COc1ccc(Br)c(CCCCC(=O)O)c1	–	> 100	–	> 100	–	> 100	–	–	–	> 100	–	> 100	–	–	–	> 100	–	76.3 µM	–	> 100
CCOC(=O)C12CN(C34CC5CC(CC(C5)C3)C4)CC(C(=O)OCC)(C1=O)C(c1ccccc1)OC2c1ccccc1 (stereo not given)	–	> 100	–	> 100	–	> 100	–	> 100	–	> 100	–	–	–	> 100	–	> 100	–	9.73 µM	–	> 100
OCCC#Cc1ccccc1C#Cc1ccccc1	–	–	22.4	45.9	11.9	24.4	7.18	17.2	19.1	45	17.5	33.6	16.5	33.9	19.8	53.4	3.48	16.7 µM	17.2	36.4
COc1cc(C2c3cc4c(cc3[C@@H](OCCN)[C@H]3COC(=O)C23)OCO4)cc(OC)c1O (stereo not given in full)	–	0.395	–	18.2	–	0.579	–	–	–	2.1	–	4.89	–	1.48	–	2.43	–	1.43 µM	–	2.01
NC(=NCc1ccccc1)N/N=C\c1ccnc2ccccc12	–	28.5	–	8.63	–	29.4	–	47.9	–	4.51	–	–	–	28.6	–	21.5	–	7.86 µM	–	32
COc1cc(-c2[nH]ncc2CCCC(=O)Nc2ccccc2[N+](=O)[O-])ccc1O	–	> 100	–	> 100	–	> 100	–	–	–	> 100	–	> 100	–	> 100	–	> 100	–	> 100 µM	–	> 100
Cn1c(=O)c2c(nc3n2C(CCl)CO3)n(C)c1=O (stereo not given)	–	–	–	> 100	–	> 100	–	> 100	–	> 100	–	> 100	–	> 100	–	> 100	–	> 100 µM	–	> 100
CC1=C(C(=O)Nc2cc(F)c(F)cc2F)C(c2cccc([N+](=O)[O-])c2)C(C(=O)Nc2ccccc2C(F)(F)F)=C(C)N1 (stereo not given)	–	39.4	–	59.3	–	–	–	47.4	–	36.5	–	–	–	54.6	–	38.4	–	32.3 µM	–	66.1
CCOC(=O)c1c(-c2ccccc2)[nH]c2ccccc2c1=O	–	–	–	> 100	–	–	–	> 100	–	> 100	–	> 100	–	> 100	–	> 100	–	> 100 µM	–	> 100
